Laboratory results as given in ChEMBL document CHEMBL1201862, “PubChem BioAssay data set” (2004).
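Following 48 hours of exposure in 96-well plates, responses at five concentrations were used to interpolate endpoints linearly. GI50: concentration for 50% inhibition of growth.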 The source made the active and inactive calls. No stated cut-off is given here; in the data, active = GI50 up to about 1.1 µM and inactive = higher.

Assays:
Test in all cases: inhibition of tumour cell growth, NCI panel, 48 h
SR = system: SR
HCT-15 = system: HCT-15
HCT-116 = system: HCT-116
SK-MEL-2 = system: SK-MEL-2
RPMI-8226 = system: RPMI-8226
MOLT-4 = system: MOLT-4
SF-539 = system: SF-539
MCF7 = system: MCF7
SW-620 = system: SW-620
MDA-N = system: MDA-N
UO-31 = system: UO-31
CCRF-CEM = system: CCRF-CEM
EKVX = system: EKVX
786-0 = system: 786-0
U-251 = system: U-251
UACC-257 = system: UACC-257
COLO 205 = system: COLO 205
OVCAR-8 = system: OVCAR-8
NCI-H23 = system: NCI-H23
NCI/ADR-RES = system: NCI/ADR-RES
SNB-19 = system: SNB-19
A549 = system: A549
K562 = system: K562
RXF 393 = system: RXF 393
OVCAR-3 = system: OVCAR-3
HOP-92 = system: HOP-92
UACC-62 = system: UACC-62
A498 = system: A498
NCI-H226 = system: NCI-H226
HOP-62 = system: HOP-62
DU-145 = system: DU-145
Hs-578T = system: Hs-578T
BT-549 = system: BT-549
ACHN = system: ACHN
SF-295 = system: SF-295
SK-MEL-28 = system: SK-MEL-28
MDA-MB-435 = system: MDA-MB-435
SN12C = system: SN12C
SK-OV-3 = system: SK-OV-3
SK-MEL-5 = system: SK-MEL-5
LOX IMVI = system: LOX IMVI
SF-268 = system: SF-268
T47D = system: T47D
M14 = system: M14
MDA-MB-231 = system: MDA-MB-231
OVCAR-4 = system: OVCAR-4
KM12 = system: KM12
TK-10 = system: TK-10
HCC 2998 = system: HCC 2998
CAKI-1 = system: CAKI-1
OVCAR-5 = system: OVCAR-5
NCI-H460 = system: NCI-H460
HL-60 = system: HL-60
SNB-75 = system: SNB-75
HT-29 = system: HT-29
IGROV-1 = system: IGROV-1
PC-3 = system: PC-3
NCI-H522 = system: NCI-H522
Malme-3M = system: Malme-3M

For `NS(=O)(=O)c1nnc(NS(=O)(=O)c2cccc3cccnc23)s1`, the GI50 (SR) was 41.9 µM (inactive), the GI50 (HCT-15) was > 100 µM and the GI50 (HCT-116) was > 100 µM (inactive). The GI50 (SK-MEL-2) was > 100 µM (inactive), the GI50 (RPMI-8226) was > 100 µM (inactive) and the GI50 (MOLT-4) was > 100 µM (inactive). The GI50 (SF-539) was > 100 µM (inactive), the GI50 (MCF7) was > 100 µM (inactive) and the GI50 (SW-620) was > 100 µM (inactive). The GI50 (MDA-N) was > 100 µM (inactive), the GI50 (UO-31) was > 100 µM (inactive) and the GI50 (CCRF-CEM) was > 100 µM (inactive). The GI50 (EKVX) was > 100 µM (inactive), the GI50 (786-0) was > 100 µM (inactive) and the GI50 (U-251) was > 100 µM (inactive). For the same compound, the GI50 (UACC-257) was > 100 µM (inactive), the GI50 (COLO 205) was > 100 µM (inactive) and the GI50 (OVCAR-8) was > 100 µM (inactive). The GI50 (NCI-H23) was > 100 µM (inactive), the GI50 (NCI/ADR-RES) was > 100 µM (inactive) and the GI50 (SNB-19) was > 100 µM (inactive). For the same compound, the GI50 (A549) was > 100 µM (inactive), the GI50 (K562) was > 100 µM (inactive) and the GI50 (RXF 393) was > 100 µM (inactive). For the same compound, the GI50 (OVCAR-3) was > 100 µM (inactive), the GI50 (HOP-92) was > 100 µM (inactive) and the GI50 (UACC-62) was > 100 µM (inactive). For the same compound, the GI50 (A498) was > 100 µM (inactive), the GI50 (NCI-H226) was > 100 µM (inactive) and the GI50 (HOP-62) was > 100 µM (inactive). For the same compound, the GI50 (DU-145) was > 100 µM (inactive), the GI50 (Hs-578T) was > 100 µM (inactive) and the GI50 (BT-549) was > 100 µM (inactive). The GI50 (ACHN) was > 100 µM (inactive), the GI50 (SF-295) was > 100 µM (inactive) and the GI50 (SK-MEL-28) was > 100 µM (inactive). For the same compound, the GI50 (MDA-MB-435) was > 100 µM (inactive), the GI50 (SN12C) was > 100 µM (inactive) and the GI50 (SK-OV-3) was > 100 µM (inactive). For the same compound, the GI50 (SK-MEL-5) was > 100 µM (inactive), the GI50 (LOX IMVI) was > 100 µM (inactive) and the GI50 (SF-268) was > 100 µM (inactive). For the same compound, the GI50 (T47D) was > 100 µM (inactive), the GI50 (M14) was > 100 µM (inactive) and the GI50 (MDA-MB-231) was > 100 µM (inactive). For the same compound, the GI50 (OVCAR-4) was > 100 µM (inactive), the GI50 (KM12) was > 100 µM (inactive) and the GI50 (TK-10) was > 100 µM (inactive). The GI50 (HCC 2998) was > 100 µM (inactive), the GI50 (CAKI-1) was > 100 µM (inactive) and the GI50 (OVCAR-5) was > 100 µM (inactive). For the same compound, the GI50 (NCI-H460) was > 100 µM (inactive).
`CP(C)(=S)P(C)(C)=S` was tested, and the GI50 (SR) was > 100 µM (inactive), the GI50 (HCT-15) was > 100 µM and the GI50 (HCT-116) was > 100 µM (inactive). The GI50 (SK-MEL-2) was > 100 µM (inactive), the GI50 (RPMI-8226) was > 100 µM (inactive) and the GI50 (MOLT-4) was > 100 µM (inactive). For the same compound, the GI50 (SF-539) was > 100 µM (inactive), the GI50 (MCF7) was > 100 µM (inactive) and the GI50 (SW-620) was > 100 µM (inactive). The GI50 (HL-60) was > 100 µM (inactive), the GI50 (SNB-75) was > 100 µM (inactive) and the GI50 (MDA-N) was > 100 µM (inactive). For the same compound, the GI50 (UO-31) was > 100 µM (inactive), the GI50 (CCRF-CEM) was > 100 µM (inactive) and the GI50 (EKVX) was > 100 µM (inactive). The GI50 (786-0) was > 100 µM (inactive), the GI50 (U-251) was > 100 µM (inactive) and the GI50 (UACC-257) was > 100 µM (inactive). For the same compound, the GI50 (COLO 205) was > 100 µM (inactive), the GI50 (OVCAR-8) was > 100 µM (inactive) and the GI50 (NCI-H23) was > 100 µM (inactive). The GI50 (NCI/ADR-RES) was > 100 µM (inactive), the GI50 (HT-29) was > 100 µM (inactive) and the GI50 (SNB-19) was > 100 µM (inactive). The GI50 (A549) was > 100 µM (inactive), the GI50 (K562) was > 100 µM (inactive) and the GI50 (RXF 393) was > 100 µM (inactive). The GI50 (UACC-62) was > 100 µM (inactive), the GI50 (NCI-H226) was > 100 µM (inactive) and the GI50 (HOP-62) was > 100 µM (inactive). For the same compound, the GI50 (DU-145) was > 100 µM (inactive), the GI50 (Hs-578T) was > 100 µM (inactive) and the GI50 (IGROV-1) was 78.5 µM (inactive). The GI50 (BT-549) was > 100 µM (inactive), the GI50 (ACHN) was > 100 µM (inactive) and the GI50 (PC-3) was > 100 µM (inactive). For the same compound, the GI50 (SF-295) was > 100 µM (inactive), the GI50 (SK-MEL-28) was > 100 µM (inactive) and the GI50 (SN12C) was > 100 µM (inactive). The GI50 (SK-OV-3) was > 100 µM (inactive), the GI50 (SK-MEL-5) was > 100 µM (inactive) and the GI50 (LOX IMVI) was 4.37 µM (inactive). For the same compound, the GI50 (SF-268) was > 100 µM (inactive), the GI50 (T47D) was > 100 µM (inactive) and the GI50 (M14) was > 100 µM (inactive). The GI50 (NCI-H522) was > 100 µM (inactive), the GI50 (MDA-MB-231) was > 100 µM (inactive) and the GI50 (OVCAR-4) was > 100 µM (inactive). For the same compound, the GI50 (Malme-3M) was > 100 µM (inactive), the GI50 (TK-10) was > 100 µM (inactive) and the GI50 (HCC 2998) was > 100 µM (inactive). The GI50 (CAKI-1) was > 100 µM (inactive), the GI50 (OVCAR-5) was > 100 µM (inactive) and the GI50 (NCI-H460) was > 100 µM (inactive).
For `COC(=O)[C@@H]1CCc2nc3ccccc3c(=O)n21`, the GI50 (SR) was > 100 µM (inactive), the GI50 (HCT-15) was > 100 µM and the GI50 (HCT-116) was > 100 µM (inactive). The GI50 (SK-MEL-2) was > 100 µM (inactive), the GI50 (RPMI-8226) was > 100 µM (inactive) and the GI50 (MOLT-4) was > 100 µM (inactive). The GI50 (SW-620) was > 100 µM (inactive), the GI50 (HL-60) was > 100 µM (inactive) and the GI50 (SNB-75) was > 100 µM (inactive). The GI50 (MDA-N) was > 100 µM (inactive), the GI50 (UO-31) was > 100 µM (inactive) and the GI50 (CCRF-CEM) was > 100 µM (inactive). The GI50 (EKVX) was > 100 µM (inactive), the GI50 (786-0) was > 100 µM (inactive) and the GI50 (U-251) was > 100 µM (inactive). For the same compound, the GI50 (UACC-257) was > 100 µM (inactive), the GI50 (COLO 205) was > 100 µM (inactive) and the GI50 (OVCAR-8) was > 100 µM (inactive). For the same compound, the GI50 (NCI-H23) was > 100 µM (inactive), the GI50 (NCI/ADR-RES) was > 100 µM (inactive) and the GI50 (HT-29) was > 100 µM (inactive). The GI50 (A549) was > 100 µM (inactive), the GI50 (K562) was > 100 µM (inactive) and the GI50 (OVCAR-3) was > 100 µM (inactive). The GI50 (HOP-92) was > 100 µM (inactive), the GI50 (UACC-62) was > 100 µM (inactive) and the GI50 (A498) was > 100 µM (inactive). For the same compound, the GI50 (NCI-H226) was 93.1 µM (inactive), the GI50 (HOP-62) was > 100 µM (inactive) and the GI50 (DU-145) was > 100 µM (inactive). For the same compound, the GI50 (Hs-578T) was > 100 µM (inactive), the GI50 (IGROV-1) was > 100 µM (inactive) and the GI50 (BT-549) was > 100 µM (inactive). The GI50 (ACHN) was > 100 µM (inactive), the GI50 (SF-295) was > 100 µM (inactive) and the GI50 (SK-MEL-28) was > 100 µM (inactive). For the same compound, the GI50 (MDA-MB-435) was > 100 µM (inactive), the GI50 (SN12C) was > 100 µM (inactive) and the GI50 (SK-OV-3) was > 100 µM (inactive). The GI50 (SK-MEL-5) was > 100 µM (inactive), the GI50 (LOX IMVI) was > 100 µM (inactive) and the GI50 (SF-268) was > 100 µM (inactive). For the same compound, the GI50 (T47D) was > 100 µM (inactive), the GI50 (M14) was > 100 µM (inactive) and the GI50 (NCI-H522) was > 100 µM (inactive). For the same compound, the GI50 (MDA-MB-231) was > 100 µM (inactive), the GI50 (OVCAR-4) was > 100 µM (inactive) and the GI50 (KM12) was > 100 µM (inactive). For the same compound, the GI50 (TK-10) was > 100 µM (inactive), the GI50 (HCC 2998) was > 100 µM (inactive) and the GI50 (CAKI-1) was > 100 µM (inactive). For the same compound, the GI50 (OVCAR-5) was > 100 µM (inactive) and the GI50 (NCI-H460) was > 100 µM (inactive).
